Like-named read-outs stand apart in the source and are kept apart here.
Experiments:
Format in all cases: cell-based, human
HeLa cells [1] = experiment: MTT cell viability assay under hypoxic conditions (1% oxygen); details: hypoxia 1% oxygen; for EC50: Homo sapiens
Procedure: (§1) Cells were exposed to low oxygen conditions in a hypoxia chamber (Coy Labs). Exponentially growing cells plus media were equilibrated in the hypoxia chamber for 24 h. The hypoxia chamber consisted of an airtight glove box, with the atmosphere continuously monitored by an oxygen analyser. An oxygen concentration of 1% was maintained throughout the chamber, with the balance comprised of 5% CO2, nitrogen and water vapour from a humidified chamber.
(§2) Cells were seeded in 96-well flat-bottomed microtitre plates (5000 cells well^−1) and incubated at 37°C in a 5% CO2 incubator for 24 h. Cells were then incubated with varying concentrations of photosensitiser (1 × 10^−9 to 1 × 10^−4 M) in the dark for 3 h at 37°C. The ADPM compound-laden medium was then removed, the cells were washed with PBS and fresh culture medium was added to each well. This was followed by light irradiation with a broad-spectrum red light source (600–750 nm) via a Waldmann PDT1200L light delivery system. For this study, fluences (light exposures) of either 8 or 16 J cm^−2, at a dose rate of 80 mW cm^−2, were used. Following irradiation, the cells were incubated for a further 48 h before being assessed for cell viability by a standard MTT assay (Sigma). The subsequent colour change produced by viable cells was quantified using a plate reader (VICTOR^2 1420 multilabel HTS counter, Wallac). […] The dark toxicity of each compound was also assessed.
(§3) For cell viability experiments performed under hypoxic conditions, cells were cultured in a hypoxia chamber as described above. Varying concentrations of ADPM compounds were made using medium equilibrated within the hypoxic environment. After 3 h, the medium containing photosensitiser was removed, the cells were washed with PBS to remove excess compound and fresh, equilibrated medium was added to each well. This was followed by light irradiation under hypoxic conditions with the broad-spectrum red light source as before.
(§4) Prism ([…]) was used to graph the data obtained from the MTT assays and the uptake/clearance experiments. This program allows nonlinear regression analysis and the generation of sigmoidal dose–response curves. Prism also automatically calculates EC50 values. Statistical analysis was performed using the ANOVA test (Prism). Significant differences were detected using the Bonferroni multiple comparison test. P-values <0.05 were considered statistically significant.

MRC5 cells [2] = experiment: as above; details: MRC5, hypoxia 1% oxygen; for EC50: Homo sapiens
Procedure: as §1, §2, §3, §4

HeLa cells [3] = experiment: Cellular uptake and clearance (fluorescence microscopy)
Procedure: (§5) Cells were seeded at 30 000 cells well^−1 in chamber slides and allowed to adhere for 24 h. For the uptake studies, ADPM01 (1 × 10^−5 M) was then added to each chamber and incubated at 37°C in the dark. Following appropriate incubation periods (5 min–6 h), the cells were washed four times with media to remove all free photosensitisers. The cells were then fixed with 3.7% formaldehyde/PBS for 15 min at 37°C, after which the cells were washed twice with PBS. Mounting fluid (Vectashield) and a coverslip were then placed on each slide. […] In this case, the cells were fixed at various time points (15 min – 24 h) after removal of the drug. The slides were then viewed using an Axio fluorescent microscope (Zeiss). A DAPI filter (Band pass 356) was used to accurately count the number of cells in each field of view and a rhodamine filter (Long pass 590) was used to quantify fluorescence from ADPM01. LabWorks version 4.0 (Bioimaging Systems) was used to calculate the average fluorescence intensity of ADPM01 per cell.
as §4

MRC5 cells [4] = experiment: as above; details: MRC-5, 1 × 10^−5 M for 3 h, then drug removed
Procedure: as §5, §4

HeLa cells [5] = experiment: Subcellular localisation by confocal laser-scanning microscopy; details: 1 × 10^−5 M, 1 h
Procedure: Cells, grown on eight-well chamber slides (Nunc), were incubated in the dark at 37°C with 1 × 10^−5 M ADPM01 for 1 h. The medium was removed and the cells then treated with 250 nM MitoTracker Green (Molecular Probes) or 100 nM ER Tracker Blue (Molecular Probes) for 25 min. Prior to visualisation, excess probe was washed off by rinsing in PBS four times and cells were fixed in 3.7% formaldehyde/PBS. Cells were mounted as above and image analysis was performed using a LSM510 META confocal laser-scanning microscope (Zeiss) equipped with an × 40 numerical aperture 1.0 objective, with a pinhole of 100 μm in diameter being used to capture each image at a resolution of 512 × 512 pixels. MitoTracker Green was excited by a 488 nm argon laser and ER Tracker Blue was excited by a UV laser (364 nm), while ADPM01 was excited by a 543 nm helium neon laser. For simultaneous detection of MitoTracker Green and ADPM01, a 560 nm long pass filter was used in channel 1 (red) for ADPM01, while a 505–530 nm band pass filter was used in channel 2 (green) for MitoTracker Green. For dual detection of ER Tracker Blue and ADPM01, a long pass filter of 560 nm was used in channel 1 (red) for ADPM01 and a 385–470 nm band pass filter was used in channel 2 (blue) for ER Tracker Blue. […]

MRC5 cells [6] = experiment: Flow cytometric assessment of apoptosis (Annexin-V/PI)
Procedure: Evaluation of apoptotic and necrotic cell populations was achieved using the ApoTarget Annexin-V FITC Apoptosis kit (BioSource International, Inc.). Cells (2.0 × 10^5) were seeded into 25 cm^2 flasks and treated with either ADPM01 or ADPM06 at respective EC50 or 10-fold EC50 concentration levels for 3 h, followed by irradiation with red light at 16 J cm^−2, as described above. Subsequently, cells were incubated for 4 and 16 h, with floating and adherent cells being collected at each time point by centrifugation and then stained with Annexin-V and propidium iodide (PI) as per the manufacturer's instructions. The percentage of cells at different phases of cell death, namely nonapoptotic (Annexin-V^−/PI^−), early apoptotic (Annexin-V^+/PI^−), and necrotic or late-stage apoptotic (Annexin-V^+/PI^+), was quantified using a EPICS XL-MCL flow cytometer (Coulter) and analysed using System II software, with at least 5000 cells being analysed for each run.

[7] = 0 J cm^−2, read-out: EC50 (M) (dark)
[8] = 8 J cm^−2, read-out: EC50 (M) (8 J cm^−2)
[9] = 16 J cm^−2, read-out: EC50 (M) (16 J cm^−2)
[10] = MRC5, 10-fold EC50 concentration, 16 h post-irradiation
[11] = MRC5, EC50 concentration, 4 h post-irradiation

Row | EC50 (HeLa cells [1]; [7]) [M] | EC50 (HeLa cells [1]; [8]) [M] | EC50 (HeLa cells [1]; [9]) [M] | retention at 3 h post-withdrawal (clearance) (HeLa cells [3]; 1 × 10^−5 M for 3 h, then drug removed) [%] | cellular uptake, accumulated by 3 h (HeLa cells [3]; 1 × 10^−5 M, 37°C in the dark, 6 h period) [%] | retention 3 h post-withdrawal (clearance) (MRC5 cells [4]) [%] | co-localisation with endoplasmic reticulum (ER Tracker Blue) (HeLa cells [5]) | SMILES | efficacy (light-induced activity) at 1% oxygen level vs normoxia (HeLa cells [1]) | EC50 (MRC5 cells [2]; [7]) [M] | EC50 (MRC5 cells [2]; [8]) [M] | EC50 (MRC5 cells [2]; [9]) [M] | efficacy (light-induced activity) at 1% oxygen level vs normoxia (MRC5 cells [2]) | cells in lower left quadrant (Annexin-V−/PI−, nonapoptotic) (MRC5 cells [6]; [10]) [%] | cells in lower right quadrant (Annexin-V+/PI−, early apoptotic) (MRC5 cells [6]; [10]) [%] | cells in upper left quadrant (PI+, Annexin-V−) (MRC5 cells [6]; [10]) [%] | cells in upper right quadrant (Annexin-V+/PI+, necrotic or late-stage apoptotic) (MRC5 cells [6]; [10]) [%] | cells in lower left quadrant (Annexin-V−/PI−, nonapoptotic) (MRC5 cells [6]; [11]) [%] | cells in lower right quadrant (Annexin-V+/PI−, early apoptotic) (MRC5 cells [6]; [11]) [%] | cells in upper left quadrant (PI+, Annexin-V−) (MRC5 cells [6]; [11]) [%] | cells in upper right quadrant (Annexin-V+/PI+, necrotic or late-stage apoptotic) (MRC5 cells [6]; [11]) [%]
1 | > 0.0001 | > 0.0001 | > 0.0001 | 42 | > 90 | 74 | more striking co-localisation | F[B-]1(F)n2c(-c3ccccc3)cc(-c3ccccc3)c2N=C2C(c3ccccc3)=CC(c3ccccc3)=[N+]21 [ADPM01] | completely ablated | > 0.0001 | > 0.0001 | > 0.0001 | completely ablated | 26.9 | 31.8 | 0.5 | 40.8 | 94.1 | 3.82 | 0.84 | 1.28
2 | > 0.0001 | 6.1e-06 | 1.5e-06 |  |  |  |  | COc1ccc(C2=[N+]3C(=Nc4c(-c5ccccc5)c(Br)c(-c5ccc(OC)cc5)n4[B-]3(F)F)C(c3ccccc3)=C2Br)cc1 [ADPM06] | only a partial reduction in light-induced activity | > 0.0001 | 7.1e-06 | 1.6e-06 | only a partial reduction in light-induced activity | 28.6 | 45.4 | 0.7 | 25.3 | 95.9 | 2.84 | 0.38 | 0.88

Source: publication PMC2362044, “A potent nonporphyrin class of photodynamic therapeutic agent: cellular localisation, cytotoxic potential and influence of hypoxia” (British Journal of Cancer, 2005)
